Results: PubChem BioAssay (NCI)
Where “and” joins values, the source holds several entries; their conditions need not be identical. Equal entries are not always repeated.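 Exposure lasted 48 hours, with cells grown in 96-well plates and compounds tested at five concentrations. The concentration for 50% growth inhibition is given as GI50. TGI: concentration producing complete growth inhibition.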

Assays:
Assay in all cases: NCI tumour cell line growth inhibition, 48 h
EKVX NSCLC = tested on: EKVX NSCLC
SK-MEL-5 melanoma = tested on: SK-MEL-5 melanoma
KM12 colon = tested on: KM12 colon
UACC-62 melanoma = tested on: UACC-62 melanoma
HL-60(TB) leukemia = tested on: HL-60(TB) leukemia
OVCAR-8 ovarian = tested on: OVCAR-8 ovarian
UO-31 renal = tested on: UO-31 renal
MALME-3M melanoma = tested on: MALME-3M melanoma
HOP-92 NSCLC = tested on: HOP-92 NSCLC
HCC-2998 colon = tested on: HCC-2998 colon

Row | SMILES | GI50 (EKVX NSCLC) | TGI (EKVX NSCLC) | GI50 (SK-MEL-5 melanoma) | TGI (SK-MEL-5 melanoma) | GI50 (KM12 colon) | TGI (KM12 colon) | GI50 (UACC-62 melanoma) | TGI (UACC-62 melanoma) | GI50 (HL-60(TB) leukemia) | TGI (HL-60(TB) leukemia) | GI50 (OVCAR-8 ovarian) | TGI (OVCAR-8 ovarian) | GI50 (UO-31 renal) | TGI (UO-31 renal) | GI50 (MALME-3M melanoma) | TGI (MALME-3M melanoma) | GI50 (HOP-92 NSCLC) | TGI (HOP-92 NSCLC) | GI50 (HCC-2998 colon) | TGI (HCC-2998 colon)
1 | CCCN(CCC)C(=O)[C@H](CC)[C@@H]1CC[C@@H](C)[C@@H]([C@H](C)[C@@H](O)[C@@H](C)C(=O)[C@H](CC)C2O[C@]3(C=C[C@@H](O)[C@]4(CC[C@@](C)([C@H]5CC[C@](O)(CC)[C@H](C)O5)O4)O3)[C@H](C)C[C@@H]2C)O1 (some centres not stated) | 2.59 µM | 11.7 µM | 1.73 µM | 3.16 µM | 1.86 µM | 4.02 µM | 1.71 µM | 4.93 µM | 2.26 µM | 5.54 µM | 3.5 µM | 24.6 µM | 2.12 µM | 7.03 µM | 1.72 µM | 3.71 µM | 1.29 µM | 4.24 µM | 2.18 µM | 5.76 µM
2 | O=C(N/N=C\c1ccc(N(CCCl)CCCl)cc1Cl)c1cccnc1 | 22.6 µM | > 83.6 µM | 13.3 µM | 34.8 µM | 19.4 µM | 64.3 µM | 0.513 µM | 3.92 µM | 7.5 µM | 36.5 µM | 21.7 µM | > 88.8 µM | 14.6 µM | 52.9 µM | 21.4 µM | 64.2 µM | 15.1 µM | 69.1 µM | 17.2 µM | 68.1 µM
3 | OC(CNC1CCCC1)Cn1c2ccccc2c2ccccc21 (configuration not stated) | 42.3 µM | > 100 µM | > 100 µM | > 100 µM | > 100 µM | > 100 µM | 32.7 µM | > 100 µM | > 100 µM | > 100 µM | 27.6 µM | > 100 µM | 97.2 µM | > 100 µM | 37 µM | > 100 µM | 14.9 µM | 34.7 µM | > 100 µM | > 100 µM
4 | CCOC(=O)C#Cc1c(CC(=O)OCC)nnn1[C@H]1O[C@@H](CO)[C@@H]2OC(C)(C)O[C@@H]21 | 17.3 µM | 35.1 µM | 15 µM | 28.4 µM | 16.4 µM | 32.7 µM | 1.84 µM | 4.14 µM | 1.86 µM | 5.71 µM | 5.48 µM | 18.2 µM | 2.82 µM | 10.3 µM | 2 µM | 4.16 µM | 3 µM | 6.94 µM | 17.7 µM | 31.8 µM
5 | Oc1ccc(N=Nc2ccc(N=Nc3ccccc3)cc2)cc1 | 2.49 µM | 12.5 µM | 2.1 µM | 5.64 µM | 2.98 µM | 16.6 µM | 0.874 µM | 2.41 µM | 0.366 µM | 16.1 µM | 3.2 µM | 24.2 µM | 0.61 µM | 3.73 µM | 11.6 µM | 25.7 µM | 6.97 µM | 28.1 µM | 2.52 µM | 11.1 µM
6 | COC(=O)[C@@H](C)C[C@H](Cc1ccccc1)NC(=O)c1csc([C@@H](C[C@H](C(C)C)N(C)C(=O)C2(NC(=O)[C@H]3CCCCN3C)CC2)OC(C)=O)n1 | – | > 33.3 µM | 0.00374 µM and 0.00333 µM | – | 0.00655 µM and 0.00333 µM | > 33.3 µM | 0.00352 µM and 0.00333 µM | > 33.3 µM | 0.000657 µM and < 0.00333 µM | 0.00685 µM and < 0.00333 µM | – | > 33.3 µM | 1.3 µM | > 33.3 µM | > 33.3 µM | > 33.3 µM | 0.00434 µM and 0.00333 µM | 5.29 µM | 0.00849 µM and 0.00333 µM | > 33.3 µM
7 | C=C1CC[C@@H]2[C@](C)(COC(C)=O)[C@H](OC(C)=O)CC[C@@]2(C)[C@@H]1C/C=C1/C(=O)OC[C@H]1OC(C)=O | 12.9 µM | 25.6 µM | 9.5 µM | 22.4 µM | 10.5 µM | 27.7 µM | 3.37 µM | 13.5 µM | 2.61 µM | 6.78 µM | 3.38 µM | 22 µM | 1.91 µM | 3.89 µM | 2.98 µM | 7.95 µM | 13.2 µM | 26.4 µM | 12.2 µM | 27.3 µM
8 | OCCNCCNc1c2ccccc2nc2oc3ccccc3c12 | 13 µM | 46.1 µM | 8.97 µM | 21.1 µM | 8.31 µM | > 100 µM | 14.1 µM | 31.5 µM | 12.4 µM | 50.5 µM | 9.46 µM | > 100 µM | 7.28 µM | 34.4 µM | 11.4 µM | 41.8 µM | 6.15 µM | 25.7 µM | 4.91 µM | 20.9 µM
9 | Clc1ccc(SCCCCCCCCCCSc2ccc(Cl)cc2)cc1 | – | > 96.6 µM | – | > 69.3 µM | – | > 70.4 µM | – | > 100 µM | – | > 100 µM | – | > 80.1 µM | – | > 100 µM | – | > 70.3 µM | – | > 100 µM | – | > 64.6 µM
10 | CNc1nc(N(C)C)nc(N(C)C)n1 | > 100 µM and 2180 µM | > 100 µM and 4800 µM | > 100 µM and 1130 µM | > 100 µM and 2840 µM | > 100 µM and 1450 µM | > 100 µM and 3420 µM | > 100 µM and 952 µM | > 100 µM and 3640 µM | > 100 µM and 2350 µM | > 100 µM and 4200 µM | > 100 µM and 1780 µM | > 100 µM and 2950 µM | > 100 µM and 828 µM | > 100 µM and 3250 µM | > 100 µM and 1160 µM | > 100 µM and 2110 µM | > 100 µM and 277 µM | > 100 µM and 809 µM | > 100 µM and 1520 µM | > 100 µM and 3590 µM
11 | C[CH2][Sn]([CH2]C)([O]C(=O)c1cccc(F)c1)[O][Sn]([CH2]C)([CH2]C)[O]C(=O)c1cccc(F)c1 | 15.3 µM | 29.1 µM | 31.7 µM | > 100 µM | > 100 µM | > 100 µM | 18.4 µM | 32.7 µM | 26.6 µM | 96.5 µM | 17.5 µM | 32.3 µM | 49.8 µM | > 100 µM | 14.1 µM | 27.3 µM | 16.5 µM | 30.1 µM | 76.1 µM | > 100 µM
12 | O=C1C[C@H]2CC3(CC[C@H]2CN1)OCCO3 | – | > 100 µM | – | > 100 µM | – | > 100 µM | – | > 100 µM | – | > 100 µM | – | > 100 µM | – | > 100 µM | – | > 100 µM | – | > 100 µM | – | > 100 µM
13 | C=CC(=O)Nc1cccc(C)c1Nc1ncc2cc(-c3c(Cl)c(OC)cc(OC)c3Cl)ccc2n1 | 6.85 µM | 52.9 µM | 2.61 µM | 9.63 µM | 4.11 µM | 24.8 µM | 7.96 µM | 42.9 µM | 2.13 µM | 15 µM | 4.83 µM | 47 µM | 3.66 µM | 61.5 µM | 3.98 µM | 31.4 µM | 6.99 µM | 36.8 µM | 12.4 µM | 31.9 µM
